Results reported in paper PMC9763021, “Comprehensive Assessment of Biomolecular Interactions of Morpholine-Based Mixed Ligand Cu(II) and Zn(II) Complexes of 2,2′-Bipyridine as Potential Anticancer and SARS-CoV-2 Agents: A Synergistic Experimental and Structure-Based Virtual Screening” (Bioinorganic Chemistry and Applications, 2022).

Test system: A549 human lung cancer cell line
Test: MTT cell viability assay, A549
Format: cell-based
Experimental: All substances towards the A549, HepG2, MCF-7, and NHDF cell lines were evaluated by using the MTT approach. The collected data were utilized to compute the IC50 value and contrast it with the gold standard cisplatin anticancer medication.
Cellular viability or metabolic properties can be measured using the MTT assay, which is a powerful and credible method for anticancer properties. The anticancer efficacy of all test compounds was investigated by the MTT assay against A549, HepG2, MCF-7, and NHDF cell lines. As per the colorimetric approach, the IC50 findings of all test substances were evaluated as the % of cell viability/growth inhibition. […] Nevertheless, complex (1a) has the highest cytotoxic potential among others. The acquired findings were in the subsequent sequence as follows: (cisplatin) > (1a) > (2a) > (HL) (Figure 16 and Table 10). The cytotoxic effectiveness is dependent upon the DNA-binding modalities, the structure-activity relationship, as well as drug concentrations and incubation period exposure. […] As per Tweedy's chelation theory, charge equilibration happens as a result of coordination between the ligands and metal ions, which minimises the polarity of the metal ions and causes the capability of the test complexes to pass via the cell membrane lipid layer. Thus, it put off the synthesis of cell wall/protein/nucleic acids. Additionally, the results of DNA-binding tests using these complexes, including gel electrophoresis, UV-visible spectral titration, hydrodynamic, emission, and CV findings, were in good agreement with the findings of cytotoxicity. The expressions (46) and (47) were supported to measure the % of growth inhibition and cell viability. […]
A549, HepG2 MCF-7, and NHDF are represented as human lung cancer cell line, liver cancer cell line, breast cancer cell line, and normal human dermal fibroblasts cell line.(45) % Cytotoxiciy=1− Mean absorbance of Sample at 595 nm/Mean absorbance of Controlat 595 nm ×100, (46) Cellviability%=100−Cytotoxiciy%.

Compound: Oc1ccccc1N=Cc1ccc(N2CCOCC2)cc1 [(HL), 2-(4-morpholinobenzylideneamino)phenol]
- IC50 (Homo sapiens, A549, 72 hours exposure): 126 ± 6.3 µM

Compound: [Cu+2].[O-]c1ccccc1N=Cc1ccc(N2CCOCC2)cc1.[O-]c1ccccc1N=Cc1ccc(N2CCOCC2)cc1.c1ccc(-c2ccccn2)nc1 [(1a), [Cu(L)2(bpy)]]
- IC50 (72 hours exposure): 30.8 ± 1.5 µM
